Patent US10940150B2, “Thymine derivatives and quinazoline-dione derivatives for the inhibition of HSP27” (TECHNISCHE UNIVERSITAET DRESDEN, priority 2014, dated 2021)

Assays:
HSP27 [1] = biological target: T1, HSP27 (Homo sapiens, UniProt P04792); experiment: Capillary electrophoresis of heat-denatured citrate synthase protein precipitates; type: biochemical; conditions: for times higher activity than BVDU for the inhibition of the HSP27 protein / Efficacy compared with BVDU: 10 μmol/L vs 750 μmol/L BVDU; for times higher activity than BVDU for the inhibition of the HSP27 protein / Rel. quantity of protein prec. CS: 43° C. for 120 minutes; for Rel. quantity of protein prec. CS: 10 μmol/L; for BVDU equivalent dose: based on 100 mg BVDU
Protocol: (§1) Since the heat-denatured protein aggregates of the citrate synthase from Example 1 are not water-soluble, these can be separated completely from the supernatant by means of centrifugation at room temperature at 16,000×g, 10 min. By using capillary electrophoresis, the compositions of the separated precipitates can be shown and quantified. The relative quantity of protein of precipitated citrate synthase serves as a measure of the efficacy of the test substances.
(§2) In each case, 481 nmol/L HSP27 and 1.44 μmol/L citrate synthase in 40 mmol/L HEPES buffer, pH 7.4, were employed. The relative quantity of protein of the precipitated citrate synthase in each case was normalized using a defined quantity of BSA as internal standard. The relative quantity of protein that precipitated when using 750 μmol/L BVDU was set at 1. The other test substances (2 representatives of phenothiazine derivatives of general formula (V), 2 representatives of purine derivatives of formula (I) or (II)) were each employed at a concentration of 10 μmol/L.
as §1, with “Example 2” for “Example 1”
as §2, with “nM” for “nmol/L”, “thymine” for “purine”, “were” for “were each”, “μmol/L in each case.” for “μmol/L.”
Otherwise, the experiments were performed as described above: […]

RPMI-8226 cells [2] = experiment: Development of resistance to bortezomib in RPMI-8226 cells; type: cell-based
Protocol: The cell line RPMI-8226 (DMSZ 402) is a “multiple myeloma” cell line and was chosen because bortezomib is employed as a standard therapy for multiple myeloma. RPMI-8226 cells respond to bortezomib, express HSP27 and develop resistance to Velcade. RPMI-8226 cells were seeded at a cell count of 100,000 cells/ml in each case and regularly passaged. […] In contrast, for RPMI 8226 cells that were treated with 30 μmol/L BVDU, a final cell count of 160,000 cells/ml was detected whereas the final cell count for the culture without the addition of an HSP27 inhibitor amounted to 350,000 cells/ml. As a control, RPMI 8226 cells were treated with the respective test substances alone, FIG. 4b.

RPMI-8226 cells [3] = experiment: as above; type: cell-based; remark: listed apart in the source
HSP27 [4] = biological target: T1, HSP27; experiment: Spectrophotometric protein aggregation assay (citrate synthase, HSP27 chaperone function); type: biochemical; conditions: for effect on chaperone function of HSP27 (CS aggregation) relative to 750 μmol/L BVDU: 43° C., 500 nm
Protocol: FIG. 1: a spectrophotometric protein aggregation assay at 43° C., a wavelength of 500 nm and a concentrations of the proteins: 1.44 μmol/L citrate synthase (CS), 481 nmol/L HSP27 (HSP) in a 40 mmol/L HEPES buffer (pH 7.4) during treatment with 14 or 28 μmol/L 2-(3-trichlorovinylphenylamino)-1,9-dihydropurin-6-one (CS+HSP+test substance no. 2), with 750 μmol/L BVDU (CS+HSP+BVDU) and without (CS+HSP; reference);
To measure the efficacy of the purine derivatives according to the invention, robust experiments for the chaperone function of the HSP27 protein were performed:
A known client protein (=substrate on which HSP27 acts as a chaperone) of HSP27 is citrate synthase. Citrate synthase is denatured when the temperature increases to 43° C. This heat denaturation is prevented or delayed by the presence of HSP27 [Jakob U, 1993]. By adding the novel active ingredients, their efficacy can thus be measured through the inhibition of the HSP27 chaperone function.
To determine the activity (i.e. the effect on the aggregation behaviour of the citrate synthase (CS) after thermal incubation) of 2-(3-trichlorovinylphenylamino)-1,9-dihydropurin-6-one in comparison to BVDU, four different batches containing 1.44 μmol/L CS, 481 nmol/L HSP27 (HSP) in a 40 mmol/L HEPES buffer (pH 7.4) were prepared and BVDU (750 μmol/L) or various concentrations of 2-(3-trichlorovinylphenylamino)-1,9-dihydropurin-6-one (14 μmol/L; 28 μmol/L) were added. The samples were then incubated at 43° C. and the aggregation behaviour of the CS was […] in a spectrometer (PerkinElmer LS55, PerkinElmer Inc.) at a wavelength of 500 nm.
It can be seen from FIG. 1 that the protein citrate synthase (graph CS alone) is denatured by increasing the temperature to 43° C. and forms aggregates. The aggregation is measured in the spectrometer at 500 nm (light scattering by protein aggregates). The presence of HSP27 (HSP) counteracts the aggregation (cf. graph, CS+HSP). Since the addition of the test substances (BVDU and 2-(3-trichlorovinylphenylamino)-1,9-dihydropurin-6-one) inhibits the chaperone function of HSP27, the activity of the respective test substance can be determined by measuring the aggregation behaviour of the CS.

U937 cells = experiment: Development of resistance to bortezomib in U937 cells; type: cell-based; conditions: bortezomib 0.1-0.5 ng/ml + 0.75 μmol/L test substance (FIG. 11a)
Protocol: For this purpose, U937 cells (histiocytic lymphoma) were cultured in DMEM culture medium (+10% FCS) at 37° C., 5% CO2 in an H2O-saturated atmosphere. 100,000 cells/ml were seeded and incubated with the cytostatic agent bortezomib (0.1 ng/ml) and the respective test substance (dosage in the current experiment: 1 μM/L acepromazine). The reference substance, BVDU, was employed at a concentration of 30 μM/L. The cells were in each case passaged before the cell count reached 1,000,000 cells/ml. At each passage, 100,000 cells/ml were again seeded and the dose of the cytostatic agent bortezomib was increased stepwise (0.1 ng/mL or 0.05 ng/mL). The concentration of the test substances remained constant. As a result of the stepwise increase in the dosage of the cytostatic agent, resistance developed in the U937 cells. The development of resistance is prevented or inhibited in the case of a positively tested HSP27 inhibitor. The experiments from Example 6 were repeated in the same way, wherein U937 cells (histiocytic lymphoma) are cultured in DMEM culture medium (+10% FCS) at 37° C., 5% CO2 in an H2O-saturated atmosphere. 100,000 cells/ml were seeded and incubated with an initial concentration of 0.2 ng/ml of the cytostatic agent bortezomib and both without an inhibitor and with acepromazine as an HSP27 inhibitor at a concentration of 1 μM/L. The reference substance, BVDU, was employed at a concentration of 30 μM/L. The cells were passaged in each case before the cell count reached 1,000,000 cells/ml. At each passage, 100,000 cells/ml were again seeded and the dose of the cytostatic agent bortezomib was increased stepwise by 0.1 ng/mL. The concentration of the test substance and the reference substance remained constant. As a result of the stepwise increase in the dosage of the cytostatic agent, resistance developed in the U937 cells. The development of resistance is prevented or inhibited in the case of a positively tested HSP27 inhibitor. The cell line U-937 is a histiocytic lymphoma (DSMZ ACC 5). This cell line also responds to treatment with bortezomib, expresses HSP27 and develops resistance to bortezomib. Bortezomib is not the standard therapy for this lymphoma, but is being discussed as a possible therapeutic agent. U-937 cells were seeded with a cell count of 100,000 cells/ml in each case and regularly passaged. […] At the end of the experiment, 70,000 living cells per ml medium could be detected. For the treatment with 30 μmol/L BVDU, a final cell count of 250,000 cells/ml was detected whereas the final cell count in the culture without the addition of an HSP27 inhibitor amounted to 450,000 cells/ml. As a control, U-937 cells were treated with the respective test substances alone, FIG. 10b.

HSP27 [5] = biological target: T1, HSP27; experiment: Bio-layer interferometry binding to HSP27; conditions: wet-chemical experiments
Description: Bio-layer interferometry is a technique for detecting biomolecular interactions. It is an analytical technique that measures the optical interference of white light which is reflected by two surfaces: in each case, one surface consists of a layer of the immobilized target protein on the tip of the biosensor and one is an internal reference surface. The binding of ligands to the target protein alters the interference pattern and can be measured in real time.
For the measurements, an instrument of the ForteBio Octet Red 384 brand was used. The target protein HSP27 was biotinylated and bound to the appropriate sensors (SSA). […]
For measurements by bio-layer interferometry, biotinylated HSP27 protein was first bound to Super-Streptavidin sensors (SSA, Fortebio). […] In the case of a specific binding to HSP27 of the analyte to be measured, the loaded HSP27 sensor generates a stronger signal (response) than the concurrent reference sensor. After the “baseline” has been established by incubation with the reaction buffer (PBST 0.1% Tween 20 plus 3% DMSO), first the association and then the dissociation of the respective analyte is measured in real time. The analytes were measured in increasing concentrations in each case: 1.23-3.7-11.11-33.33-100-300 μM/l.

[6] = 43° C. for 120 minutes (Table 1)
[7] = relative to 750 μmol/L BVDU = 1 (Table 1)
[8] = 43° C. for 120 minutes (Table 2)
[9] = relative to 750 μmol/L BVDU = 1 (Table 2)

T1 sequence (P04792 whole entry): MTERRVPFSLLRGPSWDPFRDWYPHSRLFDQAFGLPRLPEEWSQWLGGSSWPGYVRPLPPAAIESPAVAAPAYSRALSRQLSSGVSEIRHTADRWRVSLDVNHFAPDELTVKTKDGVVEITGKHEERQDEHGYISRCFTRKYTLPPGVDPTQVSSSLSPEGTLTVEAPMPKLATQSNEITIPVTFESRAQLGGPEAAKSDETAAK

| times higher activity than BVDU for the inhibition of the HSP27 protein (HSP27 [1]) | Efficacy compared with BVDU (HSP27 [1]; [6]) | Rel. quantity of protein prec. CS (HSP27 [1]; [7]) | BVDU equivalent dose (HSP27 [1]) | effect on chaperone function of HSP27 (CS aggregation) relative to 750 μmol/L BVDU (HSP27 [4]; 14 μmol/L) | effect on chaperone function of HSP27 (CS aggregation) relative to 750 μmol/L BVDU (HSP27 [4]; 28 μmol/L) | BVDU equivalent dose (HSP27 [4]; based on 100 mg BVDU) | Efficacy compared with BVDU (HSP27 [1]; [8]) | Rel. quantity of protein prec. CS (HSP27 [1]; [9]) | affinity for interaction with HSP27 (HSP27 [5]) | Structure (SMILES) | development of resistance to the cytostatic agent bortezomib (RPMI-8226 cells [2]; bortezomib 0.1-0.3 ng/ml + 1 μmol/L test substance (FIG. 7a)) | living cells at the end of the experiment (RPMI-8226 cells [3]; bortezomib 0.1-0.3 ng/ml + 1 μmol/L test substance (FIG. 7a), without HSP27 inhibitor 950,000 cells/ml) | development of resistance to the cytostatic agent bortezomib (U937 cells) | living cells at the end of the experiment (U937 cells; without HSP27 inhibitor 450,000 cells/ml) | development of resistance to the cytostatic agent bortezomib (RPMI-8226 cells [3]; bortezomib 0.1-0.3 ng/ml + 1 μM/L test substance (FIG. 6a)) | living cells at the end of the experiment (RPMI-8226 cells [3]; bortezomib 0.1-0.3 ng/ml + 1 μM/L test substance (FIG. 6a), without HSP27 inhibitor 950,000 cells/ml) | development of resistance to the cytostatic agent bortezomib (RPMI-8226 cells [2]; bortezomib 0.075-0.275 ng/ml + 1 μmol/L test substance (FIG. 8a)) | living cells at the end of the experiment (RPMI-8226 cells [3]; bortezomib 0.075-0.275 ng/ml + 1 μmol/L test substance (FIG. 8a), without HSP27 inhibitor 510,000 cells/ml) | development of resistance to the cytostatic agent bortezomib (RPMI-8226 cells [2]; bortezomib 0.2-0.4 ng/ml + 0.5 μmol/L chlorpromazine (FIG. 5a)) | living cells at the end of the experiment (RPMI-8226 cells [2]; bortezomib 0.2-0.4 ng/ml + 0.5 μmol/L chlorpromazine (FIG. 5a), without HSP27 inhibitor 350,000 cells/ml) |
| --- | --- | --- | --- | --- | --- | --- | --- | --- | --- | --- | --- | --- | --- | --- | --- | --- | --- | --- | --- | --- |
| 53 times | 53.25 x | 0.71 | less than 1.9 mg | comparable effect | significantly more pronounced effect | less than 1.9 mg | – | – | – | O=c1[nH]c(Nc2cccc(C(Cl)=C(Cl)Cl)c2)nc2[nH]cnc12 [2-(3-trichlorovinylphenylamino)-1,9-dihydropurin-6-one] | significantly inhibited | 270,000 living cells per ml medium | – | – | – | – | – | – | – | – |
| 69 times | 69.0 x | 0.92 | 1.4 mg | – | – | – | – | – | – | CCCCc1ccc(Nc2nc3c(ncn3COCCO)c(=O)[nH]2)cc1 [2-(4-butylphenylamino)-9-(2-hydroxyethoxymethyl)-1,9-dihydropurin-6-one] | – | – | significantly inhibited | 30,000 living cells per ml medium | significantly inhibited | 240,000 living cells per ml medium | – | – | – | – |
| 49 times | – | – | less than 2 mg | – | – | – | 48.75 x | 0.65 | – | Cc1cn(CC=CCNC(=O)C2c3ccccc3Oc3ccccc32)c(=O)[nH]c1=O [9H-xanthene-9-carboxylic acid [4-(5-methyl-2,4-dioxo-3,4-dihydro-2H-pyrimidin-1-yl)-but-2-enyl]amide] | – | – | – | – | – | – | significantly inhibited | 290,000 living cells per ml medium | – | – |
| – | 79.5 x | 1.06 | – | – | – | – | 79.5 x | 1.06 | only a low affinity | CN(C)CCCN1c2ccccc2Sc2ccc(Cl)cc21 [Chlorpromazine, reference compound] | – | – | – | – | – | – | – | – | significantly inhibited | 70,000 living cells per ml medium |
